# From patent publication US8367698B2, “3-substituted sulfonyl piperidine derivative” (MSD K.K., priority 2008, dated 2013)
# Target: T1, human LCE (Homo sapiens, UniProt Q9H5J4)
# T1 sequence (Q9H5J4 1-265): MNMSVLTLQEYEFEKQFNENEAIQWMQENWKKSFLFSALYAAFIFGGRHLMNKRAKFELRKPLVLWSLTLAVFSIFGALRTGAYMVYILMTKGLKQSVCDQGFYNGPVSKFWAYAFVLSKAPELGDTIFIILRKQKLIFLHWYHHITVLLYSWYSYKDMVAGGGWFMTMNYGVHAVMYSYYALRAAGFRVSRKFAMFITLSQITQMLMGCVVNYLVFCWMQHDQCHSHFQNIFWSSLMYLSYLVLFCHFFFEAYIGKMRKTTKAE
# Test: LCE enzymatic activity inhibition test
# Assay type: biochemical
# Details: palmitoyl-CoA and [14C]-malonyl-CoA substrate, 37° C. for 90 minutes, pH 6.5
# Experimental: A test compound was dissolved in dimethylsulfoxide (DMSO) at 10 mM, and then, the resulting solution was further diluted with DMSO to prepare a 1000-fold stock solution having a concentration 1000 times higher than the concentration to be evaluated. An LCE enzymatic activity inhibition test was carried out by a modified method of Moon (J. Biol. Chem., Vol. 276, pp. 45358-45366, (2001)) et al. That is, the diluted test compound was added to a 96-well assay plate (Corning, 96-Well Assay Block) in an amount of 1.0 μL per well, and thereafter, 50 μL of a phosphate buffer solution (a 100 mM potassium phosphate buffer solution (pH 6.5)), 25 μL of a substrate solution (a 100 mM potassium phosphate buffer solution (pH 6.5), 4.0 μM rotenone, 80 μM fatty acid-free bovine serum albumin, 160 μM palmitoyl-CoA, 80 μM malonyl-CoA, 3.5 μM [^14C]-malonyl-CoA (1.92 GBq/mmol, manufactured by Amersham, Inc.)) was added to each well, and further, 25 μL of an enzyme solution (a 100 mM potassium phosphate buffer solution (pH 6.5), 100 μg/mL human LCE) was added thereto. Then, the upper part of the plate was hermetically closed with a seal member, and the plate was incubated at 37° C. for 90 minutes while gently shaking and stirring. Thereafter, to each well, 100 μL of 5 N HCl was added and the assay plate was stirred at room temperature for 5 minutes, whereby the enzymatic reaction was stopped and also acyl-CoA was hydrolyzed. Thereafter, the enzymatic reaction solution in each well was adsorbed to each well of a 96-well GF/C filter plate (PerkinElmer, Unifilter 96GF/C) through which water had been passed in advance, and then, each well was washed with water to remove unadsorbed malonyl-CoA and the GF/C filter plate was dried at 50° C. for 60 minutes. Thereafter, to each well, 30 μL of a scintillator (PerkinElmer, Microscinti 0) was added and the upper part of the plate was sealed, and the radioactivity of the fixed [^14C] was measured using a microplate scintillation counter (PerkinElmer, Top Count) from which the enzymatic activity was determined. The human LCE enzyme inhibitory activity of the test compound was calculated using the radioactivity obtained from a well to which DMSO containing no test compound is added as a control.
row,IC50 [nM],Compound
1,132,"CC(C)Oc1cc(NC(=O)[C@@H]2C[C@@H]3CC[C@H]2N(S(=O)(=O)c2cn(C)cn2)C3)n[nH]1 (relative stereo) [Example 105, (1R*,4S*,6R*)-N-(5-Isopropoxy-1H-pyrazol-3-yl)-2-[(1-methyl-1H-imidazol-4-yl)sulfonyl]-2-azabicyclo[2.2.2]octane-6-carboxamide]"
2,51,"CC(C)Oc1ccc(C(=O)NCC2(C)CCCN(S(=O)(=O)c3ccccc3)C2)cc1 (stereo not drawn) [Example 81, 4-Isopropoxy-N-{[3-methyl-1-(phenylsulfonyl)piperidin-3-yl]methyl}benzamide]"
3,60,"CC(C)Oc1ccc(C(=O)NCC2(C)CCCN(S(=O)(=O)c3ccccn3)C2)cc1 (stereo not drawn) [Example 82, 4-Isopropoxy-N-{[3-methyl-1-(pyridin-2-ylsulfonyl)piperidin-3-yl]methyl}benzamide]"
4,14,"CCC1(CNC(=O)c2ccc(OC(C)C)cc2)CCCN(S(=O)(=O)c2ccccn2)C1 (stereo not drawn) [Example 85, N-{[3-Ethyl-1-(pyridin-2-ylsulfonyl)piperidin-3-yl]methyl}-4-isopropoxybenzamide]"
5,284,"CCC1(CNC(=O)c2ccc(OC(C)C)cc2)CCCN(S(=O)(=O)c2cn(C)cn2)C1 (stereo not drawn) [Example 86, N-({3-Ethyl-1-[(1-methyl-1H-imidazol-4-yl)sulfonyl]piperidin-3-yl}methyl)-4-isopropoxybenzamide]"
6,12,"CC(C)Cc1cc(C(=O)NCC2(c3ccccc3)CCCN(S(=O)(=O)c3cn(C)cn3)C2)[nH]n1 (stereo not drawn) [Example 98, 3-Isobutyl-N-({1-[(1-methyl-1H-imidazol-4-yl)sulfonyl]-3-phenylpiperidin-3-yl}methyl)-1H-pyrazole-5-carboxamide]"
7,35,"CCC1(C(=O)Nc2ccc(OC(C)C)cn2)CCCN(S(=O)(=O)c2cn(C)cn2)C1 (stereo not drawn) [Example 103, 3-Ethyl-N-(5-isopropoxypyridin-2-yl)-1-[(1-methyl-1H-imidazol-4-yl)sulfonyl]piperidine-3-carboxamide]"
8,38,"CCC1(C(=O)Nc2cc(OC(C)C)[nH]n2)CCCN(S(=O)(=O)c2cn(C)cn2)C1 (stereo not drawn) [Example 104, 3-Ethyl-N-(5-isopropoxy-1H-pyrazol-3-yl)-1-[(1-methyl-1H-imidazol-4-yl)sulfonyl]piperidine-3-carboxamide]"

# The remaining lines, values behind:
row,Compound,IC50 [nM]
1,"CC(C)Oc1ccc(NC(=O)[C@@H]2C[C@@H]3CC[C@H]2N(S(=O)(=O)c2cn(C)cn2)C3)cc1 (relative stereo) [Example 26, (1R*,4S*,6R*)-N-(4-Isopropoxyphenyl)-2-[(1-methyl-1H-imidazol-4-yl)sulfonyl]-2-azabicyclo[2.2.2]octane-6-carboxamide]",268
2,"CCCCS(=O)(=O)N1C[C@H]2CC[C@@H]1[C@H](C(=O)Nc1cc(C3CC3)n[nH]1)C2 (relative stereo) [Example 42, (1R*,4S*,6R*)-2-(Butylsulfonyl)-N-(3-cyclopropyl-1H-pyrazol-5-yl)-2-azabicyclo[2.2.2]octane-6-carboxamide]",155
3,"CC(C)Oc1ccc(NC(=O)[C@@H]2C[C@@H]3CC[C@H]2N(S(=O)(=O)c2ccccn2)C3)nc1 (relative stereo) [Example 47, (1R*,4S*,6R*)-N-(5-Isopropoxypyridin-2-yl)-2-(pyridin-2-ylsulfonyl)-2-azabicyclo[2.2.2]octane-6-carboxamide]",19
4,"CC(C)Oc1ccc(NC(=O)[C@@H]2C[C@@H]3CC[C@H]2N(S(=O)(=O)c2cn(C)cn2)C3)nc1 (relative stereo) [Example 48, (1R*,4S*,6R*)-N-(5-isopropoxypyridin-2-yl)-2-[(1-methyl-1H-imidazol-4-yl)sulfonyl]-2-azabicyclo[2.2.2]octane-6-carboxamide]",159
5,"COc1ccccc1C(=O)NCC1(c2ccccc2)CCCN(S(=O)(=O)c2ccccn2)C1 (stereo not drawn) [Example 64, 2-Methoxy-N-{[3-phenyl-1-(pyridin-2-ylsulfonyl)piperidin-3-yl]methyl}benzamide]",20
6,"CC(C)Oc1ccc(C(=O)NCC2(c3ccccc3)CCCN(S(=O)(=O)c3ccccn3)C2)cc1 (stereo not drawn) [Example 73, 4-Isopropoxy-N-{[3-phenyl-1-(pyridin-2-ylsulfonyl)piperidin-3-yl]methyl}benzamide]",3.7
7,"CC(C)Oc1ccc(C(=O)NCC2(c3ccccc3)CCCN(S(=O)(=O)c3cn(C)cn3)C2)cc1 (stereo not drawn) [Example 74, 4-Isopropoxy-N-({1-[(1-methyl-1H-imidazol-4-yl)sulfonyl]-3-phenylpiperidin-3-yl}methyl)benzamide]",17.4
8,"CCCS(=O)(=O)N1CCCC(CNC(=O)c2ccc(OC(C)C)cn2)(c2ccccc2)C1 (stereo not drawn) [Example 76, 5-Isopropoxy-N-{[3-phenyl-1-(propylsulfonyl)piperidin-3-yl]methyl}pyridine-2-carboxamide]",44
9,"CC(C)Oc1ccc(C(=O)NCC2(c3ccccc3)CCCN(S(=O)(=O)c3ccccn3)C2)nc1 (stereo not drawn) [Example 78, 5-Isopropoxy-N-{[3-phenyl-1-(pyridin-2-ylsulfonyl)piperidin-3-yl]methyl}pyridine-2-carboxamide]",14
10,"CC(C)Oc1ccc(C(=O)NCC2(c3ccccc3)CCCN(S(=O)(=O)c3cn(C)cn3)C2)nc1 (stereo not drawn) [Example 79, 5-Isopropoxy-N-({1-[(1-methyl-1H-imidazol-4-yl)sulfonyl]-3-phenylpiperidin-3-yl}methyl)pyridine-2-carboxamide]",49
